Results from US4444754A, “Derivatives of clavulanic acid, a process for their preparation and their use” (Beecham Group Limited, priority 1978, dated 1984).
In brackets after ≈: the same amount, converted by molar mass. Read-outs that look alike come from different tables or passages of the source.

Columns and labels:
[1] = test system: Staphylococcus aureus Smith; experiment: in-vivo anti-bacterial activity in mice with intraperitoneal Staphylococcus aureus Smith infection; conditions: intraperitoneal S. aureus Smith; for ED50: Staphylococcus aureus, sc, sub-cutaneous dosing 1 and 5 hours post infection
Procedure: (§1) When tested in mice suffering from an intraperitoneal infection of Staphylococcus aureus Smith, the following results where obtained with sub-cutaneous dosing 1 and 5 hours post infection: […]

[2] = overt drug induced toxicity in infected mice at the therapeutic dose; format: in vivo; conditions: sub-cutaneous
Procedure: as §1

Staph. aureus Oxford = experiment: MIC in DST agar containing 5% blood; format: cell-based; conditions: Staphylococcus aureus
Description: (§2) The following MIC values (μg/ml) for the compound of Example 2 were obtained in DST agar containing 5% blood: […]

E. coli 0111 = experiment: MIC in DST agar containing 5% blood; format: cell-based; conditions: Escherichia coli
Description: as §2

E. coli ESS = experiment: MIC in DST agar containing 5% blood; format: cell-based; conditions: Escherichia coli
Description: as §2

Staph. aureus Russell = experiment: MIC in DST agar containing 5% blood; format: cell-based; conditions: Staphylococcus aureus
Description: as §2

E. coli JT39 (R+) = experiment: MIC in DST agar containing 5% blood; format: cell-based; conditions: Escherichia coli
Description: as §2

Strep. pneumoniae = experiment: MIC in DST agar containing 5% blood; format: cell-based; conditions: Streptococcus pneumoniae
Description: as §2

Staph. aureus 1517 = experiment: MIC in DST agar containing 5% blood; format: cell-based; conditions: Staphylococcus aureus
Description: as §2

Strep. faecalis I = experiment: MIC in DST agar containing 5% blood; format: cell-based; conditions: Enterococcus faecalis
Description: as §2

Kleb. aerogenes A = experiment: MIC in DST agar containing 5% blood; format: cell-based; conditions: Klebsiella aerogenes
Description: as §2

Prot. mirabilis C977 = experiment: MIC in DST agar containing 5% blood; format: cell-based; conditions: Proteus mirabilis
Description: as §2

Strep. pyogenes CN1O = experiment: MIC in DST agar containing 5% blood; format: cell-based; conditions: Streptococcus pyogenes
Description: as §2

E. coli E96 (Rtem) = experiment: in-vivo test in mice infected intraperitoneally with E. coli E96 (Rtem), amoxycillin synergy; conditions: Escherichia coli, sc, read-out: CD50 of amoxycillin alone
Klebsiella aerogenes E70 = experiment: in vitro MIC of ampicillin with and without the compound (synergy); format: cell-based; conditions: without the compound of Example 2, read-out: in vitro MIC of ampicillin alone
[3] = read-out: CD50 (the source's name)

Which ED50 ([1]; range of results in various tests, read-out: CD50, range of results in various tests) does the source give for `O=C(O)[C@H]1/C(=C/CO)O[C@@H]2CC(=O)N21` [Clavulanic acid sodium, reference compound] here?
Its ED50 is 12 to 27 mg/kg.

And the ED50 [1, 3]?
The ED50 was 13 mg/kg.

What does the source list for `O=C(O)[C@H]1/C(=C/CN2CCc3ccccc3C2)O[C@@H]2CC(=O)N21` [Example 2, 9-N-(1,2,3,4-Tetrahydroisoquinolyl)deoxyclavulanic acid]?
overt drug induced toxicity [2]: No overt drug induced toxicity was observed; MIC (Staph. aureus Oxford): ≤ 1.25 µg/mL; MIC (E. coli 0111): 80 µg/mL (≈ 255 µM); MIC (E. coli ESS): 10 µg/mL (≈ 31.8 µM); MIC (Staph. aureus Russell): ≤ 1.25 µg/mL; MIC (E. coli JT39 (R+)): 40 µg/mL (≈ 127 µM); MIC (Strep. pneumoniae): ≤ 1.25 µg/mL; MIC (Staph. aureus 1517): 20 µg/mL (≈ 63.6 µM); MIC (Strep. faecalis I): 80 µg/mL (≈ 255 µM); MIC (Kleb. aerogenes A): 20 µg/mL (≈ 63.6 µM); MIC (Prot. mirabilis C977): > 80 µg/mL; MIC (Strep. pyogenes CN1O): ≤ 1.25 µg/mL; ED50 [1, 3]: 3.5 mg/kg; anti-bacterial activity in-vivo ([1]; result in words): good anti-bacterial activity in-vivo

For `CC1(C)S[C@@H]2[C@H](NC(=O)[C@H](N)c3ccc(O)cc3)C(=O)N2[C@H]1C(=O)O` [amoxycillin], which ED50 (E. coli E96 (Rtem)) is on record?
The ED50 was over 1000 mg/kg.

Which MIC (Klebsiella aerogenes E70) does the source give for `CC1(C)S[C@@H]2[C@H](NC(=O)[C@H](N)c3ccccc3)C(=O)N2[C@H]1C(=O)O` [ampicillin] here?
Its MIC is 125 µg/mL.
